Target: T1, lipases, preferably HSL (Rattus norvegicus, UniProt P15304)
T1 sequence (P15304 1-768 isoform P15304-2): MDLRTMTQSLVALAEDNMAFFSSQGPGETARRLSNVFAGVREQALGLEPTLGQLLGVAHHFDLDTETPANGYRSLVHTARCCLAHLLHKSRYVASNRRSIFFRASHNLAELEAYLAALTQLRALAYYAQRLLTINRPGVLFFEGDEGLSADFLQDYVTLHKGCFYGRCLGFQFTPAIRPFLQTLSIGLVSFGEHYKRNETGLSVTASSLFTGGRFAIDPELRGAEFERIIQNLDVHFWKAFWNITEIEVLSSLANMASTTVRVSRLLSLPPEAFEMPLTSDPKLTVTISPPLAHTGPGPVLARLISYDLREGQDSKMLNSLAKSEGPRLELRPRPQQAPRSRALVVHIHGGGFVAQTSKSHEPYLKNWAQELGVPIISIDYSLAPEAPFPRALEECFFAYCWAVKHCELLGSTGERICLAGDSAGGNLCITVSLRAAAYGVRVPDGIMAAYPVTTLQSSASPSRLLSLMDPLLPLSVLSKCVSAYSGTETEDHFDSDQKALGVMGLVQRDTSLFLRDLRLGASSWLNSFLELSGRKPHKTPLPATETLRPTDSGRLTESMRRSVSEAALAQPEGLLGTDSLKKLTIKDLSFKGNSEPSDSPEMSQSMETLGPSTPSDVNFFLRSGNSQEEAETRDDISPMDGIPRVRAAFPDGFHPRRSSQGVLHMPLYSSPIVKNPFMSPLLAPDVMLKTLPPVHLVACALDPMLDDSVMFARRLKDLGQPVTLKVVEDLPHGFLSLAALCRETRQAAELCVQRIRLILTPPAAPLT
Assay: Synthesized NBD-acylglycerides as substrates of lipases
Assay type: biochemical

| Activity as substrate of lipases | Structure (SMILES) |
| --- | --- |
| decrease in activity | CCCCCC(=O)OCC(COC(=O)CCCCCCCCCCCNc1ccc([N+](=O)[O-])c2nonc12)OC(=O)CCCCC (centres unmarked) [Compound (5), 2-Hexanoyloxy-3-[12-(7-nitrobenzo[1,2,5]oxadiazol-4-ylamino)-dodecanoyloxy]propyl hexanoate] |
| decrease in activity | CCCCCCCCCCCCCCCC(=O)OCC(COC(=O)CCCCCCCCCCCNc1ccc([N+](=O)[O-])c2nonc12)OC(C)=O (centres unmarked) [Compound (7), 2-Acetyloxy-3-[12-(7-nitrobenzo[1,2,5]oxadiazol-4-ylamino)-dodecanoyloxy]propyl hexadecanoate] |

Reference: patent publication US6783949B1, “Processes for determining whether a test substance contains lipases or lipase inhibitors” (Aventis Pharma Deutschland GmbH, priority 1999, dated 2004)
